Patent publication US8318805B2, “Modulation of nitric oxide synthases by betaines” (priority 2004, dated 2012)
“And” between values parts separate entries of the source, which are not always exact repeats. Equal entries are not always repeated.

Legend:
total nitric oxide = assay: Nitric oxide plasma levels in healthy volunteers after repeated betaine ingestion; assay type: in vivo, human; parameters: Nitric oxide plasma levels Conc / Nitric oxide plasma levels Conc (×2): unit not given here; settings: for Nitric oxide plasma levels Conc / Nitric oxide plasma levels Conc (×2): individual donors
Experimental: (§1) After obtaining the baseline blood samples (sample a) from fastened normal healthy volunteers (n=10), Betaine was repeatedly administered in daily doses of 6 g. (2×3) for 1 week. After obtaining the 1 week blood sample from fastened volunteers (sample b) Betaine was again administered orally at a dose of 3 g. and a third blood sample drawn after one hour (sample c). […] The blood samples were centrifuged and the separated platelet poor plasma was then aliquoted and frozen at −70° C. for subsequent analysis for nitric oxide (NO), tissue factor pathway inhibitor (TFPI) activity levels and global clotting assays.
(§2) The samples are identified for each donor as number of donor (1, 2, etc) followed by the letter of the sample (a, b, c).

[1] = test system: thrombus formation in mesenteric veinules or arterioles; assay: Laser-induced thrombosis in rat mesenteric circulation; assay type: in vivo, Wistar rats
Description: Male Wistar rats (200-270 gram) were used for the experiments. […] After the medial laparotomy the intestinal loop was placed on the microscope table. Vascular lesions were produced by Argon laser […] This shot causes a well limited lesion of the vascular endothelium (only few cells are destroyed) exposing the thrombogenetic under-layer of the sub-endothelium. The contact of blood with this surface triggers the adherence of platelets via glycoproteins Ib & IIb IIIa. This adherence of platelets is followed by their activation: they form pseudopods and secrete the content of their granules. As a consequence thrombus formation occurs within few seconds. This platelet rich thrombus rapidly enlarges under influence of blood flow, embolises (i.e. is disrupted and carried by the flow from the thrombogenic area) before a new thrombus being formed again on the injured surface. […] Up to four shots can be fired if no emboli (platelet thrombus) are readily appearing. The number of successive laser beams and emboli formed are then recorded. In the presence of an antithrombotic compound a higher number of laser shots are necessary to induce thrombus formation. Similarly, a smaller number of emboli (platelet thrombi) are formed as compared with controls and the duration of the embolisation is also shorter. […] Similarly, a higher number of emboli (platelet thrombi) are formed as compared with controls and the duration of the embolisation is also longer. Betaine is orally administrated to animals at 50 mg/kg, 60 minutes before laser thrombosis.

nitric oxide = assay: Nitric oxide production in healthy volunteers after single betaine ingestion (plasma, Griess reaction); assay type: in vivo, human; parameters: Conc. (nitric oxide) / Conc. (2) (nitric oxide): unit not given here
Experimental: Betaine is administrated at 75 mg/kg single oral dose at T0 to fastened healthy volunteers just after the basal blood sample. At T0 and T0+60 mn fresh blood samples are centrifuged to obtain plasma.
The samples are then tested for nitric oxide with the Griess reaction.

[2] = test system: fresh blood (Thromboelastograph); assay: TEG parameters after betaine oral administration in healthy volunteers; assay type: in vivo, human; settings: evaluated with TEG
[3] = test system: fresh blood (Thromboelastograph); assay: as above; assay type: in vivo, human; settings: for K / MA / R / α Angle: T0 + 60 mn after 75 mg/kg single oral dose
Experimental: Betaine is administrated at 75 mg/kg single oral dose at T0 to fastened healthy volunteers just after the basal blood sample. At T0 and T0+60 mn the fresh blood samples are immediately evaluated in the Thromboelastograph (TEG®—Haemoscope Corp.—Illinois).
R parameter corresponds to […] initial fibrin formation, and is functionally related to plasma clotting factors and clot formation.

[4] = test system: Tissue Factor Pathway Inhibitor (TFPI); assay: TFPI activity plasma levels in healthy volunteers after repeated betaine ingestion; assay type: in vivo, human; settings: for TFPI ACTIVITY: individual donors
Experimental: as §1, §2

[5] = test system: blood (rate of initial fibrin formation); assay: TEG at each blood draw during repeated betaine ingestion; assay type: in vivo, human; settings: compared to the baseline values; 6 g daily for 1 week, then 3 g
Experimental: as §1

[6] = test system: photochemically-induced brain ischemia; assay: Photochemically-induced (rose Bengal) focal cerebral ischemia on rats; assay type: in vivo, rat; settings: for Red Ischemic Area, Excluding Blue Evan Penumbra / Weight of ischemic area: mean, n = 10
Description: The aim of this study was to evaluate the activity of Betaine on thrombus formation in a rat model of photochemically-induced brain ischemia. The method (11) is based on local free radical release exerted by filtered light acting on rose Bengal previously injected in animals. Free radicals are known to induce endothelial damage, followed by platelet aggregation, thrombus formation and vascular occlusion. Briefly, an optic fiber in close contact shone denuded intact skulls (diameter of the illuminated circle 5.4 mm, luminance at the entrance of optic fiber was 5.6×10^6 Ix). After turning on the lamp, an infusion through the caudal vein of a 5 mg/mL (w/v) solution of rose Bengal in saline was started. Two mL of the solution were administered at a flow rate of 0.1 mL/min. After 20 min, at the end of the infusion, the lamp was turned off. [table] Evan's Blue solution (2% w/v) in saline was intravenously injected (1 mL/rat), 18-20 h after the ischemia induction in order to reveal the BBB breakdown. The rats were sacrificed 20 min after Evan's Blue injections and their brains removed. The infarcted area was visually verified, photographed by digital camera and then weighed.

[7] = test system: Pulmonary Arterial Hypertension; assay: Betaine added to Bosentan in patients with Pulmonary Arterial Hypertension (PAP, heart rate, 6MWT); assay type: in vivo, human; settings: after two weeks of anhydrous betaine 6 g/day bid added to Bosentan 125 mg bid
Experimental: Nine patients suffering from Pulmonary Arterial Hypertension and taking 125 mg Bosentan bid were randomly assigned to placebo (lactose monohydrate) 6 g/day bid (4 patients) or to anhydrous betaine 6 g/day bid (5 patients) during two weeks. They were assessed for haemodynamic variables and for 6 minutes walking test at inclusion and after the two weeks of medication with placebo or betaine. Pulmonary Artery Pressure (PAP) and Heart rate were non-invasively estimated by Doppler echocardiography method. 6MWT was performed on a treadmill.

[8] = test system: Tissue Factor Pathway Inhibitor (TFPI); assay: TFPI concentration plasma levels in healthy volunteers after repeated betaine ingestion; assay type: in vivo, human; settings: for TFPI CONCENTRATION: individual donors
Experimental: as §1, §2

[9] = betaine oral administration, healthy volunteers (n=10)
[10] = sample b: fasted, after 6 g daily (2×3) for 1 week
[11] = sample c: one hour after a further 3 g oral dose following 1 week of 6 g daily
[12] = plasma, Post = T0+60 mn after 75 mg/kg single oral dose, individual volunteers
[13] = healthy volunteers, 60 minutes after oral administration
[14] = mean T0 + 60 mn versus mean basal value
[15] = Betaine 10 mg/kg sc 1 h before ischemia induction
[16] = Betaine 10 mg/kg sc at the end of ischemia induction, (*) P<0,05

SMILES: C[N+](C)(C)CC(=O)O [Betaine, glycine betaine]
- Nitric oxide levels (total nitric oxide; [9]): increased
- Nitric oxide plasma levels Conc (total nitric oxide; [10]): 29.11 and 28.89 and 9.11 and 26.28 and 20.2 and 22.59 and 13.24 and 21.5 and 24.11 and 14.11
- Nitric oxide plasma levels Conc (×2) (total nitric oxide; [10]): 58.217 and 57.783 and 18.217 and 52.565 and 40.391 and 45.174 and 26.478 and 43 and 48.217 and 28.217
- Nitric oxide plasma levels Conc (total nitric oxide; [11]): 14.54 and 41.07 and 39.96 and 27.8 and 26.72 and 22.8 and 25.85 and 11.93 and 31.28 and 27.15
- Nitric oxide plasma levels Conc (×2) (total nitric oxide; [11]): 29.087 and 82.13 and 79.957 and 55.609 and 53.435 and 45.609 and 51.696 and 23.87 and 62.565 and 54.304
- Number of laser beams, number of emboli and duration of embolisation relative to saline control values ([1]; Betaine co-administration with selective COX 2 inhibitors): normalise
- Protection from selective COX 2 inhibitors thrombogenicity ([1]; rats, Betaine co-administered orally at 50 mg/kg): clearly protects animals from selective COX 2 inhibitors thrombogenicity
- Nitric oxide levels (nitric oxide; oral administration, all tested volunteers): markedly increased
- Conc. (2) (nitric oxide) (nitric oxide; [12]): 41.81 and 24.14 and 65.53 and 114.21 and 70.19 and 72.51
- Conc. (nitric oxide) (nitric oxide; [12]): 20.91 and 12.07 and 32.77 and 57.42 and 35.09 and 36.26
- R prolongation compared with Lovenox in post orthopaedic surgery patients [2]: as potent as Lovenox® anticoagulation
- K ([3]; individual volunteers): 2.5 mn and 1.8 mn and 2.0 mn and 1.3 mn (2×) and 2.7 mn
- MA ([3]; individual volunteers): 52.6 mm and 65.0 mm and 56.8 mm and 65.8 mm and 61.9 mm and 70.1 mm
- R ([3]; individual volunteers): 5.8 mn and 7.3 mn and 7.4 mn and 4.8 mn and 8.4 mn and 6.3 mn
- α Angle ([3]; individual volunteers): 57.5 ° and 65.5 ° and 64.2 ° and 71.9 ° and 66.9 ° and 70.4 °
- K ([3]; mean of 6 volunteers): 1.9 mn
- MA ([3]; mean of 6 volunteers): 62.0 mm
- R ([3]; mean of 6 volunteers): 6.8 mn
- α Angle ([3]; mean of 6 volunteers): 66.1 °
- Blood coagulation (R parameter) [3, 13]: significantly prolonged
- Other TEG parameters [3, 13]: remained stable
- Δ K [3, 14]: −8%
- Δ MA [3, 14]: +3%
- Δ R [3, 14]: +45%
- Δ α Angle [3, 14]: +1%
- TFPI activity plasma levels [4, 9]: increased
- TFPI ACTIVITY [4, 10]: 3.30 U/ml and 181.61 ng/ml and 2.74 U/ml and 150.83 ng/ml and 2.66 U/ml and 146.34 ng/ml and 2.30 U/ml and 126.36 ng/ml and 2.17 U/ml and 119.46 ng/ml and 4.66 U/ml and 256.55 ng/ml and 3.39 U/ml and 186.37 ng/ml and 2.99 U/ml and 164.44 ng/ml and 3.52 U/ml and 193.76 ng/ml and 4.43 U/ml and 243.59 ng/ml
- TFPI ACTIVITY [4, 11]: 3.60 U/ml and 197.99 ng/ml and 2.19 U/ml and 120.49 ng/ml and 1.71 U/ml and 94.20 ng/ml and 2.74 U/ml and 150.83 ng/ml and 2.98 U/ml and 163.73 ng/ml and 4.53 U/ml and 248.91 ng/ml and 3.65 U/ml and 200.57 ng/ml and 3.23 U/ml and 177.73 ng/ml and 3.45 U/ml and 189.62 ng/ml and 4.03 U/ml and 221.52 ng/ml
- TEG reaction time, i.e. rate of initial fibrin formation [5]: marked prolongation
- Red Ischemic Area, Excluding Blue Evan Penumbra [6, 15]: 0.335 cm^2
- Weight of ischemic area [6, 15]: 36 mg
- Red Ischemic Area, Excluding Blue Evan Penumbra [6, 16]: 0.28 cm^2
- Weight of ischemic area [6, 16]: 25 mg
- Efficacy in the stroke model compared with Aspirin ([6]; rat, Betaine 10 mg/kg sc): better efficacy than Aspirin
- Crossing of encephalic barrier ([6]; rat, after being present in blood stream): ability to cross encephalic barrier
- Heart rate 2 ([7]; individual patients): 84 beats/minute and 67 beats/minute and 74 beats/minute and 69 beats/minute and 72 beats/minute
- Week 2 ECO 2 PAP ([7]; individual patients): 71 mmHg and 60 mmHg and 80 mmHg and 65 mmHg and 58 mmHg
- 6MWT 2 ([7]; mean of 5 patients): 413 m
- Heart rate 2 ([7]; mean of 5 patients): 73.2 beats/minute
- Week 2 ECO 2 PAP ([7]; mean of 5 patients): 66.8 mmHg
- 6MWT 2 ([7]; treadmill, individual patients): 380 m and 504 m and 360 m and 411 m and 410 m
- TFPI concentration plasma levels [8, 9]: increased
- TFPI CONCENTRATION [8, 10]: 59.45 ng/mL and 66.23 ng/mL and 84.35 ng/mL and 47.14 ng/mL and 64.57 ng/mL and 76.40 ng/mL and 93.34 ng/mL and 47.28 ng/mL and 70.31 ng/mL and 89.81 ng/mL
- TFPI CONCENTRATION [8, 11]: 86.98 ng/mL and 70.38 ng/mL and 76.12 ng/mL and 70.52 ng/mL and 82.62 ng/mL and 89.19 ng/mL and 87.74 ng/mL and 58.62 ng/mL and 63.25 ng/mL and 83.38 ng/mL
